Measurements taken from patent US20110130449A1, “Assay for Monitoring Activity of Jmjd6” (Isis Innovation Limited, priority 2008, published 2011).
Square brackets hold non-standard residues; d marks the D form. Ends that are not written are not given here. Arg(Me2s) = CN=C(NC)NCCC[C@H](N)C(=O)O

Experiments:
[1] = biological target: T1, Jmjd6 (Homo sapiens, UniProt Q6NYC1); test: Standard assay for Jmjd6 oxygenase activity: peptide hydroxylation by MALDI-TOF MS; assay type: biochemical; settings: for activity (hydroxylation of LUC7-like2 peptides): Table 4, standard assay conditions; for mass shift relative to un-reacted peptide: incubation with Jmjd6, oxygen, ascorbate, Fe(II), 2OG, MALDI-TOF MS
Description: All peptides tested as potential substrates of Jmjd6 were synthesised in-house by a Intavis MultiPep automated multiple synthesiser, using Tentagel amide resin (Intavis). Fluorenylmethoxycarbonyl (Fmoc)-protected amino acids were coupled with N,N′-diisopropylcarbodiimide (DIC)/1-hydroxybenzotriazole (HOBt). Cleavage of the completed peptides from the resin used CF3CO2H (TFA)/[…]. Predicted masses were confirmed by MALDI-TOF mass spectrometry. Standard assay conditions were used and are described above.
To determine whether U2AF65, CROP and LUC7-like2 were substrates of Jmjd6, multiple peptides were synthesized based on the RS domains of these proteins (FIG. 8). Initial peptides were synthesized with dimethylated arginine residues because it was speculated that Jmjd6 may be an arginine demethylase (FIG. 9). To determine whether any of these peptides were Jmjd6 substrates, incubations were carried out in the presence of oxygen, ascorbate, Fe(II) and 2OG; and peptide modifications were analyzed by MALDI-TOF MS.

[2] = biological target: T1, Jmjd6; test: biochemical; assay type: biochemical; settings: for rank of inhibition of Jmjd6 activity (in words) / inhibitory effect on Jmjd6 activity: 100 μM inhibitor, substrate peptide d; for hydroxylation of peptide d, as observed by MALDI: 100 μM compound added to assay; for enhancers of Jmjd6 activity (statement): chelating agents
Protocol: (§1) Standard assays consisted of the substrate mixture: peptide (100 μM), 2OG (500 μM), ascorbate (100 μM) in Tris (50 mM, pH 7.5); and the enzyme mixture: FeNH4SO4 (100 μM) and Jmjd6 (10 μM) in Tris (50 mM, pH 7.5). The reaction was initiated by mixing the substrate and enzyme mixtures and incubating at 37° C. for 30-60 minutes. The reaction was quenched by adding TFA to a final concentration of 0.1% and incubating on ice. Hydroxylation of the peptide was analysed by a MALDI TOF micro MX mass spectrometer (Waters Micromass); where the assay mixture (1 μL), along with α-cyano-4-hydroxycinnamic acid MALDI (CHCA) matrix in 60% acetonitrile/0.1% TFA (1 μL), was spotted directly onto the target plate. To determine whether modification of peptide was Jmjd6-dependent assays were performed omitting either 2OG or Fe(II). To determine whether Jmjd6 was inhibited by N-oxaloylglycine (NOG), NOG (24 mM) was added to the substrate component of the assay system.
To determine the pH profile of Jmd6 standard peptide assays were performed over a pH range of 6 to 9. Buffers used were piperazine-N,N′-bis(ethanesulfonic acid) (PIPES) (pH 6.0 and 6.5), 4-(2-hydroxyethyl)-1-piperazineethanesulfonic acid (HEPES) (pH 7.0 to 8.0) and N,N-bis(2-hydroxyethyl) glycine (BICINE) (pH 8.5 and 9.0). Inhibition assays were performed under identical conditions as described for the standard assays except either succinate (1 mM) or fumarate (1 mM) were included in the substrate mixture.
A control without inhibitor was included as a reference.

[3] = system: full-length Jmjd6 (SEQ ID NO:1), Jmjd6 residues 1 to 343, Jmjd6 residues 25 to 338; settings: peptide d 100 μM; FIGS. 18 and 19
Protocol: as §1

[4] = succinate (1 mM) or fumarate (1 mM) in substrate mixture

Molecule: 22 (NPKKSKSKEHKK) [No 22]
- activity (hydroxylation of LUC7-like2 peptides) [1]: double

Molecule: O=C(O)CCC(=O)O [succinate]
- inhibitory of Jmjd6 lysyl hydroxylase activity (statement) [2]: inhibitory
- rank of inhibition of Jmjd6 activity (in words) [2]: most potent inhibitors
- inhibition of the +16 mass shift in peptide d [2, 4]: completely inhibited

Molecule: O=C(O)CNC(=O)c1nc(Cl)c2ccccc2c1O [FG2216]
- inhibitory of Jmjd6 lysyl hydroxylase activity (statement) [2]: inhibitory
- inhibitory effect on Jmjd6 activity [2]: ~50%

Molecule: O=C(O)c1cccc(C(=O)O)n1 [pyridine-2,6-dicarboxylic acid]
- hydroxylation of peptide d, as observed by MALDI [2]: 100%
- enhancers of Jmjd6 activity (statement) [2]: Enhancers

Molecule: O=c1c(-c2ccc(O)cc2)coc2cc(O)cc(O)c12 [genistein]
- inhibitory of Jmjd6 lysyl hydroxylase activity (statement) [2]: inhibitory

Molecule: O=C(O)c1ccnc(C(=O)O)c1 [pyridine-2,4-dicarboxylic acid]
- inhibitory of Jmjd6 lysyl hydroxylase activity (statement) [2]: inhibitory
- rank of inhibition of Jmjd6 activity (in words) [2]: most potent inhibitors

Molecule: SHSRSRSR(Me2sym)DRKRRSRS (chain 1 SHSRSRS[Arg(Me2s)]; also: chains 1 and 2 form one continuous peptide) [No 9]
- mass shift relative to un-reacted peptide [1]: +16

Molecule: 21 (NPKKSKSKEHRR) [No 21]
- activity (hydroxylation of LUC7-like2 peptides) [1]: double

Molecule: O=C(O)c1ccc(C(=O)O)nc1 [pyridine-2,5-dicarboxylic acid]
- hydroxylation of peptide d, as observed by MALDI [2]: 100%
- enhancers of Jmjd6 activity (statement) [2]: Enhancers

Molecule: 20 (NPKKSKSREHRR) [No 20]
- activity (hydroxylation of LUC7-like2 peptides) [1]: double

Molecule: SHSRSR(Me2sym)SRDRKRRSRS ({Ser-H2N-Ser-Arg-Ser-(R(Me2sym))}-SRDRKRRSRS) [No 10]
- mass shift relative to un-reacted peptide [1]: +16

Molecule: O=C(O)c1c[nH]c2c(ccc3cccnc32)c1=O [FG0041]
- inhibitory of Jmjd6 lysyl hydroxylase activity (statement) [2]: inhibitory
- inhibitory effect on Jmjd6 activity [2]: ~50%

Molecule: NPKRSRSREHRR [No 12]
- hydroxylation of peptide d by truncated and full-length Jmjd6 [3]: hydroxylated

Molecule: NPKRSRSR(Me2sym))EHRRHRSR (chain 1 NPKRSRS[Arg(Me2s)]; also: chains 1 and 2 form one continuous peptide) [No 1]
- mass shift relative to un-reacted peptide [1]: +16

Molecule: 23 (NPKRSRSKEHKK) [No 23]
- activity (hydroxylation of LUC7-like2 peptides) [1]: yes

Molecule: O=C(O)CNC(=O)C(=O)O [NOG, N-oxalylglycine]
- inhibitory of Jmjd6 lysyl hydroxylase activity (statement) [2]: inhibitory
- inhibition of hydroxylation of peptide d, as observed by MALDI ([2]; 12 mM NOG in the assay mixture): completely inhibited
- inhibition of the +16 mass shift in peptide d ([2]; NOG 24 mM added to substrate component, FIG. 11 legend 120 mM): completely inhibited
- inhibition at 100 µM ([2]; read-out: inhibitory effect on Jmjd6 activity): < 20%

Molecule: 24 (NPKRSRSREHKK) [No 24]
- activity (hydroxylation of LUC7-like2 peptides) [1]: yes

Molecule: O=C(O)/C=C/C(=O)O [fumarate]
- inhibitory of Jmjd6 lysyl hydroxylase activity (statement) [2]: inhibitory
- rank of inhibition of Jmjd6 activity (in words) [2]: most potent inhibitors
- inhibition of the +16 mass shift in peptide d [2, 4]: completely inhibited
